# Where “and” joins values, the source holds several entries; their conditions need not be identical. Equal values may be shown once. Read-outs that look alike come from different tables or passages of the source.
# How the values were obtained:
# 17β-HSD2 = test system: 17β-HSD2; parameters: method as in PMID 18533708; conditions: cited from earlier work; for activity: 40 μM, read-out: inhibition of 17β-HSD2: % residual activity at 40 μM; for activity / IC50: mean ± SD; for classification (17β-HSD2 inhibition): flavonoid SAR model, Table 4; for IC50: read-out: inhibition of 17β-HSD2: IC50 (μM)
# human 17β-HSD1 = biological target: T1, human 17β-HSD1 (Homo sapiens, UniProt P14061); test: 17β-HSD1 activity assay using lysates of HEK-293 cells expressing the recombinant human enzyme; format: biochemical; conditions: for 17β-HSD1 inhibition (in words; n.i. = no inhibition): screened at 20 μM
# T1 construct: expressed in transfected cells; host or cells: HEK-293 (ATCC), used as cell lysate
# T1 sequence (P14061 1-328): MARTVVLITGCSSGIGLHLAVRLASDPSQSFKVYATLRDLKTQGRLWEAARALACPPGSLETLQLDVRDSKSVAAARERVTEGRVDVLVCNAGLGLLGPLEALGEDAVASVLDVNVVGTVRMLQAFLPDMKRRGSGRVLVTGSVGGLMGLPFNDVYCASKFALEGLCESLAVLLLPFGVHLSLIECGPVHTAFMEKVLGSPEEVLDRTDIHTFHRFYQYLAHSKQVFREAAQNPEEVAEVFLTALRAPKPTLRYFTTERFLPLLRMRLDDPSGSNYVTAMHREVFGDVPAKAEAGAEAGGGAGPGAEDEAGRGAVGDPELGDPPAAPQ
# human 17β-HSD2 = biological target: T2, human 17β-HSD2 (Homo sapiens, UniProt P37059); test: 17β-HSD2 activity assay using lysates of HEK-293 cells expressing the recombinant human enzyme; format: biochemical; conditions: for IC50: HEK-293 lysates, 200 nM estradiol, 500 μM NAD+, 10 min 37 °C; for remaining activity at 20 µM: read-out: 17β-HSD2 remaining activity at 20 μM (% of control); for 17β-HSD2 inhibition (in words): tested at 20 μM;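 as to all read-outs here: conversion of tritium-labelled estradiol (200 nM, with 500 µM NAD+, 10 min) quantified after TLC separation by scintillation counting, at least three independent measurements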
# T2 construct: expressed in transfected cells; host or cells: HEK-293 (ATCC), used as cell lysate
# T2 sequence (P37059 1-387): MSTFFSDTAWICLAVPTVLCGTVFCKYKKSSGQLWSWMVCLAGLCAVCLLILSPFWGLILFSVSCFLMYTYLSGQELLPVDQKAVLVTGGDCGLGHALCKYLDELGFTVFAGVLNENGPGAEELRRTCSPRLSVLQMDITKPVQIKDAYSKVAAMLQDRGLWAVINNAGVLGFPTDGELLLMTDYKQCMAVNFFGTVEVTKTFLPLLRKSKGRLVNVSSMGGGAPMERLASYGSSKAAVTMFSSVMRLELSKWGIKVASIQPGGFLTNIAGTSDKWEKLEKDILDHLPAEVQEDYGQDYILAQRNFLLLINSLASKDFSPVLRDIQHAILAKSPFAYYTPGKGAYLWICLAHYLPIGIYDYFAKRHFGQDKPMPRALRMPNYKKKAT
# [1] = 20 μM compound, % of vehicle control
compound,measurement,setting,value
"O=c1cc(-c2ccccc2)oc2ccccc12 [compound 25, flavone]",activity,17β-HSD2,63.9 ± 0.6%
same,classification (17β-HSD2 inhibition),17β-HSD2,inactive^24
"O=C(Cc1ccc(O)c(Cl)c1)NCc1ccccc1 [compound 16, N-benzyl-2-(3-chloro-4-hydroxyphenyl)acetamide]",17β-HSD1 inhibition (in words; n.i. = no inhibition),human 17β-HSD1,n.i.
same,IC50,human 17β-HSD2,3.42 ± 0.74 µM
"O=c1c2c(O)cc(O)cc2oc2oc3cc(O)ccc3c12 [compound 8, lupinalbin A]",IC50,"human 17β-HSD1; HEK-293 lysates, 200 nM estrone, 500 μM NADPH",0.049 ± 0.019 µM
"O=C1CC(c2ccccc2O)Oc2ccccc21 (stereo not shown) [compound 20, 2´-hydroxyflavanone]",activity,17β-HSD2,50.7 ± 0.5%
same,classification (17β-HSD2 inhibition),17β-HSD2,inactive^24
"O=C(O)Cc1ccc(O)cc1 [S15, 2-(4-hydroxyphenyl)acetic acid]",remaining activity at 20 µM,human 17β-HSD2; [1],108 ± 5%
same,17β-HSD2 inhibition (in words),human 17β-HSD2,did not inhibit
"O=c1c(O)c(-c2ccc(O)c(O)c2)oc2cc(O)cc(O)c12 [compound 31, quercetin]",classification (17β-HSD2 inhibition),17β-HSD2,active^24
same,IC50,17β-HSD2,1.54 ± 0.22 µM
"COc1ccc([C@@H]2CC(=O)c3c(O)cc(O)cc3O2)cc1O [compound 24, hesperetin]",activity,17β-HSD2,36.4 ± 1.7%
same,classification (17β-HSD2 inhibition),17β-HSD2,inactive^24
"O=C(/C=C/c1ccc(O)c(O)c1)c1ccc(O)cc1O [compound 10, butein]",IC50,human 17β-HSD2,7.3 ± 2.7 µM
same,fold less active than 6 (17β-HSD2 IC50),human 17β-HSD2; compared with compound 6,20 fold
"CCCCOC(=O)c1cc(O)c(O)c(O)c1 [S3, butyl gallate]",remaining activity at 20 µM,human 17β-HSD2; [1],56 ± 5%
"NC(=O)Cc1ccc(O)c(Cl)c1 [S11, 2-(3-chloro-4-hydroxyphenyl)acetamide]",remaining activity at 20 µM,human 17β-HSD2; [1],80 ± 10%
same,17β-HSD2 inhibition (in words),human 17β-HSD2,did not inhibit
"O=C(/C=C/c1ccc(O)c(O)c1)O[C@@H]1C[C@](O)(C(=O)O)C[C@@H](O)[C@H]1O [S8, chlorogenic acid]",remaining activity at 20 µM,human 17β-HSD2; [1],97 ± 10%
"O=C(Cc1ccc(O)c(Cl)c1)NCc1ccccc1Cl [compound 18, 2-(3-chloro-4-hydroxyphenyl)-N-(2-chlorobenzyl)acetamide]",remaining activity at 20 µM,"human 17β-HSD1; 20 μM compound, read-out: 17β-HSD1 remaining activity at 20 μM",54.8 ± 5.8%
same,selectivity factor,human 17β-HSD1; 17β-HSD1 versus 17β-HSD2,∼25
same,IC50,human 17β-HSD2,0.78 ± 0.16 µM
"CC1(C)CC[C@]2(C(=O)O)CC[C@]3(C)C(=CC[C@@H]4[C@@]5(C)CC[C@H](O)C(C)(C)[C@@H]5CC[C@]43C)[C@@H]2C1 [compound 2, oleanolic acid]",remaining activity at 20 µM,human 17β-HSD2,49 ± 6%
"COc1cc([C@H]2OC[C@H]3[C@@H]2CO[C@@H]3c2ccc(O)c(OC)c2)ccc1O [compound 7, pinoresinol]",remaining activity at 20 µM,human 17β-HSD2,42 ± 5%
"COc1cc(CCC(C)=O)ccc1O [S2, vanillyl acetone]",17β-HSD2 remaining activity at 20 μM (% of control),human 17β-HSD2; [1],106 ± 9%
"CCCCNC(=O)Cc1ccc(O)c(Cl)c1 [compound 15, N-butyl-2-(3-chloro-4-hydroxyphenyl)acetamide]",remaining activity at 20 µM,human 17β-HSD2; [1],33 ± 6%
same,17β-HSD2 inhibition (in words),human 17β-HSD2,moderately active
"O=c1cc(-c2ccc(O)cc2)oc2cc(O)cc(O)c12 [compound 29, apigenin]",activity,17β-HSD2,25.2 ± 0.9%
same,classification (17β-HSD2 inhibition),17β-HSD2,weak^24
same,IC50,17β-HSD2,> 20 µM
"NC(=O)Cc1ccc(O)cc1 [S16, 2-(4-hydroxyphenyl)acetamide]",remaining activity at 20 µM,human 17β-HSD2; [1],110 ± 10%
same,17β-HSD2 inhibition (in words),human 17β-HSD2,did not inhibit
"COC(=O)c1cc2c(c(O)c1OC)[C@H](C)C[C@@H](O)[C@H]2[C@@H](C)CCC=C(C)C [S18, methyl (5R,7R,8S)-4,7-dihydroxy-3-methoxy-5-methyl-8-((S)-6-methylhept-5-en-2-yl)-5,6,7,8-tetrahydronaphthalene-2-carboxylate]",17β-HSD2 remaining activity at 20 μM (% of control),human 17β-HSD2; [1],59 ± 7%
"COc1ccc(-c2coc3cc(O)cc(O)c3c2=O)cc1 [compound 33, biochanin A]",classification (17β-HSD2 inhibition),17β-HSD2,active^24
same,IC50,17β-HSD2,9.9 ± 1.87 µM
"O=c1c(-c2ccc(O)cc2)coc2cc(O)cc(O)c12 [compound 32, genistein]",classification (17β-HSD2 inhibition),17β-HSD2,active^24
"COCCNC(=O)Cc1ccc(O)c(Cl)c1 [compound 14, 2-(3-chloro-4-hydroxyphenyl)-N-(2-methoxyethyl)acetamide]",remaining activity at 20 µM,human 17β-HSD2; [1],37 ± 3%
same,17β-HSD2 inhibition (in words),human 17β-HSD2,moderately active
"O=C(O)/C=C/c1ccc(O)c(O)c1 [S9, caffeic acid]",remaining activity at 20 µM,human 17β-HSD2; [1],58 ± 13%
"O=c1cc(-c2ccccc2)oc2cc(O)ccc12 [compound 26, 7-hydroxyflavone]",activity,17β-HSD2,23.1 ± 1.1%
same,classification (17β-HSD2 inhibition),17β-HSD2,weak^24
same,IC50,17β-HSD2,> 20 µM
"COc1cc(CNC(=O)CCCC/C=C/C(C)C)ccc1O [S6, capsaicin]",remaining activity at 20 µM,human 17β-HSD2,53 ± 6%
"O=c1cc(-c2ccccc2)oc2cc(O)cc(O)c12 [compound 27, chrysin]",activity,17β-HSD2,32.8 ± 5.1%
same,classification (17β-HSD2 inhibition),17β-HSD2,inactive^24
"COc1cc(/C=C2\N=C(N)NC2=O)ccc1O [S14, polyandrocarpamine A]",remaining activity at 20 µM,human 17β-HSD2; [1],101 ± 7%
"O=C1CC(c2ccc(O)cc2)Oc2ccccc21 (stereo not shown) [compound 21, 4´-hydroxyflavanone]",activity,17β-HSD2,63.6 ± 3.5%
same,classification (17β-HSD2 inhibition),17β-HSD2,inactive^24
"O=C(/C=C/c1ccc(O)cc1)c1ccc(O)cc1O [compound 6, isoliquiritigenin]",IC50,human 17β-HSD2,0.36 ± 0.08 µM
"COc1cc(/C=C/C(=O)O)ccc1O [S5, ferulic acid]",17β-HSD2 remaining activity at 20 μM (% of control),human 17β-HSD2; [1],79 ± 10%
"O=C(/C=C/c1ccc(O)c(O)c1)O[C@H](Cc1ccc(O)c(O)c1)C(=O)O [compound 11, rosmarinic acid]",17β-HSD1 inhibition (in words; n.i. = no inhibition),human 17β-HSD1,n.i. ^a
same,IC50,human 17β-HSD2,3.72 ± 0.17 µM
"CCOC(=O)c1cc(O)c(O)c(O)c1 [S1, ethyl gallate]",remaining activity at 20 µM,human 17β-HSD2; [1],60 ± 6%
"COc1cc(-c2cc(=O)c3c(O)c(OC)c(O)cc3o2)ccc1O [compound 5, jaceosidin]",IC50,human 17β-HSD2,9.3 µM and 9.27 µM
same,classification (17β-HSD2 inhibition),"human 17β-HSD2; flavonoid SAR model, Table 4",active
"O=C1CC(c2ccccc2)Oc2ccc(O)cc21 (stereo not shown) [compound 22, 6-hydroxyflavanone]",activity,17β-HSD2,42.5 ± 1.8%
same,classification (17β-HSD2 inhibition),17β-HSD2,inactive^24
"O=c1c(O)c(-c2ccc(O)cc2)oc2cc(O)cc(O)c12 [compound 30, kaempferol]",classification (17β-HSD2 inhibition),17β-HSD2,active^24
same,IC50,17β-HSD2,0.36 ± 0.04 µM
"CCN(CC)CCCC(C)Nc1ccnc2cc(Cl)ccc12 (racemic) [S17, (±)-chloroquine, reference compound]",17β-HSD2 remaining activity at 20 μM (% of control),human 17β-HSD2; [1],111 ± 13%
"O=C1C[C@@H](c2ccc(O)cc2)Oc2cc(O)cc(O)c21 [compound 23, naringenin]",classification (17β-HSD2 inhibition),17β-HSD2,active^24
same,IC50,17β-HSD2,14.4 ± 4.5 µM
pestalactam A [S13],17β-HSD2 remaining activity at 20 μM (% of control),human 17β-HSD2; [1],85 ± 11%
"NC(=O)c1cccnc1 [S7, nicotinamide]",remaining activity at 20 µM,human 17β-HSD2; [1],106 ± 12%
"O=C(Cc1ccc(O)c(Cl)c1)NCCc1c[nH]c2ccccc12 [compound 17, N-(2-(1H-indol-3-yl)ethyl)-2-(3-chloro-4-hydroxyphenyl)acetamide]",17β-HSD1 inhibition (in words; n.i. = no inhibition),human 17β-HSD1,n.i.
same,IC50,human 17β-HSD2,0.98 ± 0.24 µM
"C=CCc1ccc(O)c(OC)c1 [S4, eugenol]",remaining activity at 20 µM,human 17β-HSD2,94 ± 11%
"COc1cc(C)cc2oc3ccc(O)c(C(=O)O)c3c(=O)c12 [S10, 2-hydroxy-8-methoxy-6-methyl-9-oxo-9H-xanthene-1-carboxylic acid]",17β-HSD2 remaining activity at 20 μM (% of control),human 17β-HSD2; [1],64 ± 5%
"O=c1c(-c2ccc(O)cc2)coc2cc(O)ccc12 [compound 28, daidzein]",activity,17β-HSD2,58.3 ± 6.1%
same,classification (17β-HSD2 inhibition),17β-HSD2,inactive^24
"O=C1CC(c2ccccc2)Oc2ccccc21 (stereo not shown) [compound 19, flavanone]",activity,17β-HSD2,70.7 ± 2.6%
same,classification (17β-HSD2 inhibition),17β-HSD2,inactive^24
"O=C(O)Cc1ccc(O)c(Cl)c1 [S12, 2-(3-chloro-4-hydroxyphenyl)acetic acid]",remaining activity at 20 µM,human 17β-HSD2,88 ± 7%

# From article PMC5411959, “Potential Antiosteoporotic Natural Product Lead Compounds That Inhibit 17β-Hydroxysteroid Dehydrogenase Type 2” (Journal of Natural Products, 2017)
